The values below come from US20100284912A1, “HOMOGENIZATION OF A RADIOPHARMACEUTICAL USING SONIFICATION AND/OR ROTOR-STATOR TECHNOLOGY TO PRODUCE A HOMOGENOUS SUSPENSION, EMULSION, MIXTURE OR SOLID SUSPENSION OF IMMISCIBLE INGREDIENTS” (BRACCO DIAGNOSTICS INC., priority 2007, published 2010).

This data set in a line: Thermo Gravimetric Analyzer (TGA) % volatiles (water). Conditions: 10° C./min to 110° C., isothermal hold 60 min. The format is physicochemical. On the procedure:
10 mg was collected for each sample. A heating ramp of 10° C./min from room temperature to 110° C. with an isothermal hold at 110° C. for 60 min was used in the analysis. Table 4 below depicts the % volatiles (water) which were found versus the theoretical values.

Consider `O=P([O-])([O-])O.[K+].[K+]` [Potassium Phosphate Dibasic], for which the “% Volatiles Found” value was found to be 2.7%. Take `O=S([O-])([O-])=S.[Na+].[Na+]` [Sodium Thiosulfate]: the “% Volatiles Found” value was found to be 33%.
